Experimental findings from the METLIN SMRT retention time set (Domingo-Almenara et al. 2019) are described below.

SMILES strings stand for the structures.

This data set is described as follows: gradient 5% acetonitrile 3 min, to 50% in 2 min, to 85% in 15 min, held 3 min, 100 µL/min. Conditions: column: Zorbax Extend-C18 2.1 x 50 mm; eluents: water / acetonitrile, 0.1% formic acid. The procedure, abridged: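 Values are retention times taken from adduct peaks that software picked and an analyst inspected. The pure standards were run as mixtures of ~100 molecules on HPLC linked to a quadrupole time-of-flight mass spectrometer, in positive and negative ionization mode. A Zorbax Extend-C18 column (2.1 × 50 mm, 1.8 μm) was used at 100 μL/min with water and acetonitrile, each including 0.1% formic acid.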
Consider `O=c1c2nc(-c3ccc(F)cc3)cn2ccn1-c1ccc(Cl)cc1`, for which the RP-LC retention time is 867 s.

In turn, `Cc1nn(-c2ccccc2)c(C)c1N1CCN(S(=O)(=O)c2c(C)noc2C)CC1` returned an RP-LC retention time of 952 s.

For `O=C(NCC(=O)N1CCCc2ccccc21)c1cccc(Br)c1`, the RP-LC retention time was determined as 822 s.

Consider `COc1ccc(-c2nc(NCCCN3CCCC(C)C3)c3ccccc3n2)cc1` (stereo not drawn), for which the RP-LC retention time amounted to 572 s.

Regarding `COC(=O)c1ccc2c(=O)n(CCc3ccccc3)c(N3CCSCC3)nc2c1`, the RP-LC retention time amounted to 1150 s.

`CCOC(=O)c1cc(C)nc2c1c(=O)n(Cc1ccccc1C)c(=O)n2C`: the RP-LC retention time was 872 s.

On to `CCn1cnc(S(=O)(=O)N2CCCC(C(=O)Nc3ccc(C(C)C)cc3)C2)c1` (stereo not drawn), for which the RP-LC retention time came out at 878 s.

Consider `Cc1ccc(Cn2cccc2C(=O)C(=O)Nc2ccc3c(c2)OCCO3)cc1`, for which the RP-LC retention time is 1090 s.

With `COc1ccc(CNC(=O)Nc2ccccc2NC(=O)c2cccc(Cl)c2)cc1OC`, the RP-LC retention time was found to be 808 s.

`CCCCn1c(=O)c2ccccc2n(Cc2nc(-c3ccc(SC)cc3)no2)c1=O` came in with an RP-LC retention time of 1250 s.

With `Cc1cc(C)n2c(Nc3ccc(Cl)cc3)c(-c3ccc(Cl)cc3)nc2n1`, the RP-LC retention time was 886 s.

`Cc1[nH]c(C(=O)N2CCC(CC(=O)NCc3ccc(F)cc3)CC2)c(C)c1C(=O)OC(C)C` showed an RP-LC retention time of 818 s.

`CCN(CC)C(=O)c1ccc(-n2nc(C)c3c2CCCC3=O)cc1` came in with an RP-LC retention time of 691 s.

Turning to `O=C(NC1CCCCCC1)c1ccc2c(c1)ncn2CCN1CCCC1`, the RP-LC retention time was determined as 597 s.

`CCOC(=O)N1CCN(c2nc(-c3cccc([N+](=O)[O-])c3)cs2)CC1` had an RP-LC retention time of 1080 s.

`CN(C)c1ccc(C(=O)Nc2cnc(N3CCCC3)nc2)cc1` registered an RP-LC retention time of 702 s.

As to `O=C(NCc1ccccc1Cl)C1CCCN(C(=O)c2cc(-c3ccccn3)n[nH]2)C1` (stereo not drawn), the RP-LC retention time came to 680 s.

In turn, `CCOC(=O)[C@H](CCc1ccccc1)N[C@@H](C)C(=O)N1CCC[C@@H]1C(=O)O` returned an RP-LC retention time of 647 s.

`CCOC(=O)c1nc(NCCN2CCCc3ccccc32)c2ccccc2n1` yielded an RP-LC retention time of 729 s.

`Cn1c(=O)sc2cc(S(=O)(=O)N3CCC(C(=O)NCCc4nc5ccccc5[nH]4)CC3)ccc21` came in with an RP-LC retention time of 624 s.

`Cc1noc(C)c1-c1ccc(S(=O)(=O)NCc2ccc(F)cc2)cc1` showed an RP-LC retention time of 942 s.

Molecule `CSc1ccccc1NC(=O)c1c(C)sc2ncnc(N3CCCC(C)C3)c12` (stereo not drawn) returned an RP-LC retention time of 1210 s.

Molecule `Cc1cc2nn(CC(=O)Nc3ccc(F)c(F)c3)c(=O)n2c(Nc2ccccc2)n1` came in with an RP-LC retention time of 967 s.

With `Cc1ccc(C(=O)N2CCN(c3nnc4ccc(Cl)cn34)CC2)cc1F`, the RP-LC retention time amounted to 760 s.

The molecule `COc1ccc(S(=O)(=O)NCc2ccc3c(c2)CCN3C(=O)c2ccccc2)cc1OC` came in with an RP-LC retention time of 824 s.

Regarding `Cc1ccc(CS(=O)Cc2ccc(C(=O)NCCN(C)C)o2)cc1` (stereo not drawn), the RP-LC retention time was determined as 587 s.

`Cc1nn(CC(=O)NC2CCCCCC2)c(=O)c2c(C)n(-c3ccccc3)nc12`: the RP-LC retention time came out at 807 s.

In the case of `Cc1cc2c(c(=O)n(-c3ccccc3)c(=O)n2CC(=O)Nc2ccc(Cl)cc2F)n1C`, the RP-LC retention time is 873 s.

`Cc1c(C2CCN(C(=O)c3ccco3)CC2)noc1N` yielded an RP-LC retention time of 620 s.

For `Cc1cccc(-c2nocc2CCC(=O)NC(C)c2ccc(F)cc2)c1` (stereo not drawn), the RP-LC retention time was 965 s.

Turning to `CCCn1c(=O)c(N2CCN(C(=O)C3CCC3)CC2)nc2ccccc21`, the RP-LC retention time stood at 994 s.

On to `O=C1NCCCn2cc(S(=O)(=O)N3CCN(c4ccc(Cl)cc4)CC3)cc21`, for which the RP-LC retention time amounted to 804 s.

In the case of `CC(NC(=O)C1CCN(c2cncnc2N2CCOCC2)CC1)c1ccccn1` (stereo not drawn), the RP-LC retention time is 547 s.

The molecule `CCCNC(=O)C1CC(=O)N(CCc2c[nH]c3ccc(Cl)cc23)C1` (stereo not drawn) gave an RP-LC retention time of 708 s.

Turning to `COc1cccc(-n2c(N3CCCC(C(=O)NCC(C)C)C3)nc3ccsc3c2=O)c1` (stereo not drawn), the RP-LC retention time is 818 s.

`CCOc1ccccc1N1CC(c2nc3ccccc3n2CCN2CCOCC2)CC1=O` (stereo not drawn) displayed an RP-LC retention time of 610 s.

The molecule `O=S1(=O)C[C@H](N2CCN(c3ccccn3)CC2)[C@@H](S(=O)(=O)c2ccccc2)C1` came in with an RP-LC retention time of 598 s.

`CCN1C(=O)c2cccnc2Sc2cc(NC(=O)c3cccc(OC)c3)ccc21` yielded an RP-LC retention time of 826 s.

For the molecule `COc1cccc(-c2noc(C3CC(=O)N(c4ccc5c(c4)OCO5)C3)n2)c1OC` (stereo not drawn), the RP-LC retention time was 871 s.

`Cc1noc(C)c1-c1ccc(S(=O)(=O)NC2CCCC2)cc1`: the RP-LC retention time is 911 s.

In turn, `Cc1ccc(CNC(=O)c2ccc(CN3CCN(C4CCCC4)C(=O)C3=O)cc2)cc1C` came in with an RP-LC retention time of 834 s.

In the case of `O=C1NCCCCCCN(Cc2ccc(C(F)(F)F)cc2)[C@H]2CCC[C@@H]12`, the RP-LC retention time was found to be 700 s.

As to `Cc1ccc(CNC(=O)C2(C)CCN(C(=O)Nc3cccc(Cl)c3C)CC2)cc1`, the RP-LC retention time was 717 s.

With `CCNC(=O)C1CCCN(C(=O)Nc2ccc(NC(=O)Nc3ccccc3F)cc2)C1` (stereo not drawn), the RP-LC retention time is 689 s.

`COc1ccc(N2CCN(S(=O)(=O)c3cc(-c4cnn5c(C)cc(C)nc45)ccc3C)CC2)cc1`: the RP-LC retention time is 1170 s.

Consider `CCc1ccc2[nH]c3c(c(=O)c2c1)CN(CC(=O)Nc1cc(OC)cc(OC)c1)CC3`, for which the RP-LC retention time was found to be 642 s.

As to `CCc1noc(NC(C)=O)c1-c1ccc(OC)c(S(=O)(=O)NC2CCCCC2)c1`, the RP-LC retention time amounted to 804 s.

`COc1ccc2c(c1)C1(CCN(S(=O)(=O)c3cc(F)ccc3C)C1)C(=O)N2` (stereo not drawn) came in with an RP-LC retention time of 857 s.

Molecule `Cc1ccc(C)c(N2C(=O)CN(S(=O)(=O)c3ccccc3)CC2(C)C(=O)NC2CCCC2)c1` (stereo not drawn) yielded an RP-LC retention time of 991 s.

`Cc1cc(C2CCCN2C(=O)Nc2cc(Cl)ccc2C)on1` (stereo not drawn): the RP-LC retention time was found to be 794 s.

For the molecule `O=C(NCc1ccco1)C1CCN(c2ncccc2-c2nc(-c3ccccc3)no2)CC1`, the RP-LC retention time was 964 s.

`CCCN(CCC)[C@@H]1CCc2c(OC)cccc2[C@@H]1C`: the RP-LC retention time was 802 s.

`O=C(CN1C(=O)CCc2cc(Br)ccc21)Nc1ccc(F)cc1` yielded an RP-LC retention time of 903 s.

For `Cc1ccc(CNC(=O)Cn2cnc3nc(N4CCC(C(=O)NC5CC5)CC4)sc3c2=O)cc1`, the RP-LC retention time was 708 s.

Molecule `CC1=C(c2ccc(C)cc2)S(=O)(=O)N=C1N1CCC(NC(=O)C2CCC2)CC1` returned an RP-LC retention time of 805 s.

For the molecule `COc1ccc(S(=O)(=O)N2CCN(CCc3cn(C)c4ncccc34)CC2)cc1`, the RP-LC retention time turned out to be 609 s.

In the case of `O=C(CN1C(=O)CCC1=O)NCC(O)C1CCCCC1` (stereo not drawn), the RP-LC retention time came out at 597 s.

Regarding `CCOC(=O)c1sc(NC(=O)C2CCCN(S(C)(=O)=O)C2)nc1-c1ccccc1` (stereo not drawn), the RP-LC retention time turned out to be 863 s.

Molecule `Cc1ccc(F)cc1NC(=O)c1sc(-c2cn(C)c3ncccc23)nc1C` yielded an RP-LC retention time of 983 s.

As for `Cc1nn(C)c2nc(OC(C)C(=O)Nc3ccccc3F)cc(C(F)(F)F)c12` (stereo not drawn), the RP-LC retention time was determined as 1050 s.

`COc1ccccc1CC(=O)N1CCC2(CC1)N=C(c1ccccc1)NO2` returned an RP-LC retention time of 791 s.

`C=C1[C@@H](C)[C@H]2[C@H](Cc3ccccc3)NC(=O)C23[C@H](OC(C)=O)/C=C/[C@](C)(O)C(=O)[C@@H](C)C/C=C/[C@H]3[C@@H]1O` (stereo partly drawn): the RP-LC retention time was found to be 801 s.

`CC(C)CCNC(=O)C1CCCN(C(=O)c2cc(-c3ccncc3)n[nH]2)C1` (stereo not drawn) yielded an RP-LC retention time of 591 s.

`O=C1CCCCC(Cc2ccccc2)(C(=O)NCCc2c[nH]c3ccccc23)N1` (stereo not drawn) returned an RP-LC retention time of 791 s.

`Cc1ccc(NC(=O)Cn2nc3cc(-c4ccccc4)nc(C)n3c2=O)c(F)c1` registered an RP-LC retention time of 958 s.

Consider `Cn1cccc1Cc1nnc(SCC(=O)Nc2ccccc2F)n1CCc1ccccc1`, for which the RP-LC retention time was determined as 850 s.

On to `O=C(NCCCn1ccnc1)C(=O)NCCC1=CCCCC1`, for which the RP-LC retention time amounted to 571 s.

`Cc1cc(C)cc(OCCNS(=O)(=O)c2cccs2)c1`: the RP-LC retention time is 935 s.

Regarding `CCCN1C(=O)Cc2ccccc2C1C(=O)O` (stereo not drawn), the RP-LC retention time was determined as 668 s.

Consider `Cn1c(C(=O)NCCCN2CCC(Cc3ccccc3)CC2)cc2c(=O)n(C)c3ccccc3c21`, for which the RP-LC retention time was determined as 707 s.

Molecule `C=CCn1ccc2c(OCC(=O)Nc3ccc4c(c3)OCCO4)cccc2c1=O` displayed an RP-LC retention time of 818 s.

`Cc1nc(NC(=O)Cc2c(C)[nH]c(=O)[nH]c2=O)sc1C(=O)Nc1ccccc1` registered an RP-LC retention time of 617 s.

With `COc1ccc(-c2noc(-c3ccc(N4CCN(c5ncccn5)CC4)nn3)n2)cc1`, the RP-LC retention time was 923 s.

In turn, `CCc1ccccc1S(=O)(=O)NCc1cccnc1-c1ccc(OC)cc1` returned an RP-LC retention time of 718 s.

Regarding `CN(CCc1noc(COc2ccccc2F)n1)C(=O)CCc1ccccc1`, the RP-LC retention time is 931 s.

`CCN(Cc1ccccc1)S(=O)(=O)c1ccc2c(c1)CCCC(=O)N2` had an RP-LC retention time of 856 s.

For `CC(C)CNC(=O)c1cn(-c2cc(-c3nc(C4CC4)no3)ccn2)cn1`, the RP-LC retention time was found to be 646 s.

In the case of `CCC(=O)N1CCc2cc(N3CC(C(=O)Nc4ccccc4)CC3=O)ccc21` (stereo not drawn), the RP-LC retention time stood at 720 s.
